Test results reported in the supplement of paper PMC10307832.

How the values were obtained:
Assay in all cases: relative viability (nuclei count vs DMSO), 5 days (fraction); higher = more cells survive
[1] = compound: C[C@@H](N)c1ccc(C(=O)Nc2ccnc3[nH]ccc23)cc1 + CC1(C)CCC(c2ccc(Cl)cc2)=C(CN2CCN(c3ccc(C(=O)NS(=O)(=O)c4ccc(N[C@H](CCN5CCOCC5)CSc5ccccc5)c(S(=O)(=O)C(F)(F)F)c4)cc3)CC2)C1 [Navitoclax] (partner 0.5 µM)
Procedure, shortened: (§1)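 Lung cancer cell lines were pin-tool dosed in 1536-well plates on the day after seeding, with either a lone drug or a fixed anchor-drug dose plus five library-drug doses (not always all listed) in √10 steps. Nuclei were counted on 4× images after 5 days. Relative viability is the ratio of treated-well to vehicle-well nuclei counts, with each value a median of duplicate plates.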

[2] = compound: C[C@@H](N)c1ccc(C(=O)Nc2ccnc3[nH]ccc23)cc1 + CC(=O)c1c(C)c2cnc(Nc3ccc(N4CCNCC4)cn3)nc2n(C2CCCC2)c1=O [Palbociclib] (partner 0.5 µM)
Procedure, shortened: as §1

[3] = compound: C1CNCCC1C2=CC(=NN2)C3=CC=NC=C3 + Cc1nc(Nc2ncc(C(=O)Nc3c(C)cccc3Cl)s2)cc(N2CCN(CCO)CC2)n1 [Dasatinib] (partner 0.075 µM)
Procedure, shortened: as §1

[4] = compound: C[C@@H](N)c1ccc(C(=O)Nc2ccnc3[nH]ccc23)cc1 + Nc1nc2[nH]cc(CCc3ccc(C(=O)N[C@@H](CCC(=O)O)C(=O)O)cc3)c2c(=O)[nH]1 [Pemetrexed] (partner 0.2 µM)
Procedure, shortened: as §1

Cell Line | relative viability ([1]; first compound 0.04 µM) | relative viability ([1]; first compound 0.1265 µM) | relative viability ([1]; first compound 0.4 µM) | relative viability ([1]; first compound 1.265 µM) | relative viability ([1]; first compound 4 µM) | relative viability ([2]; first compound 0.04 µM) | relative viability ([2]; first compound 0.1265 µM) | relative viability ([2]; first compound 0.4 µM) | relative viability ([2]; first compound 1.265 µM) | relative viability ([2]; first compound 4 µM) | relative viability ([3]; first compound 0.08 µM) | relative viability ([3]; first compound 0.8 µM) | relative viability ([3]; first compound 2.53 µM) | relative viability ([3]; first compound 8 µM) | relative viability ([4]; first compound 0.04 µM) | relative viability ([4]; first compound 0.1265 µM) | relative viability ([4]; first compound 0.4 µM) | relative viability ([4]; first compound 1.265 µM) | relative viability ([4]; first compound 4 µM)
LCLC-97TM1 | 0.405 | 0.507 | 0.44 | 0.786 | 0.836 | 0.276 | 0.217 | 0.341 | 0.257 | 0.309 | 0.875 | 0.784 | 0.923 | 0.758 | 0.207 | 0.188 | 0.172 | 0.0771 | 0.21
LK-2 | 0.976 | 1.18 | 0.927 | 0.82 | 0.762 | 0.826 | 0.7 | 0.655 | 0.485 | 0.912 | 0.236 | 0.388 | 0.275 | 0.482 | 0.345 | 0.264 | 0.22 | 0.282 | 0.362
LOU-NH91 | 0.61 | 0.679 | 0.602 | 0.615 | 0.615 | 0.581 | 0.527 | 0.533 | 0.536 | 0.448 | 0.527 | 0.572 | 0.624 | 0.545 | 0.378 | 0.378 | 0.393 | 0.44 | 0.368
LU99A | 0.834 | 0.851 | 0.967 | 0.839 | 0.798 | – | 0.372 | 0.387 | 0.343 | 0.275 | 0.522 | 0.744 | 0.836 | 0.645 | – | 0.189 | 0.191 | 0.23 | 0.188
LXF-289 | 1.01 | 0.915 | 1.02 | 1.07 | 0.876 | 0.613 | 0.611 | 0.565 | 0.61 | 0.512 | 0.267 | 0.184 | 0.228 | 0.185 | 0.861 | 0.909 | 0.948 | 0.929 | 0.79
NCI-H23 | 1.06 | 0.963 | 0.986 | – | 0.582 | 0.532 | 0.644 | 0.545 | – | 0.441 | 0.826 | 0.808 | 0.805 | 0.908 | 0.619 | 0.744 | 0.848 | – | 0.754
NCI-H322M | 1.2 | 1.21 | 1.36 | – | 1.55 | 0.534 | 0.584 | 0.526 | 0.515 | 0.524 | 0.24 | 0.228 | 0.247 | 0.282 | 0.79 | 0.654 | 0.588 | 0.48 | 0.602
NCI-H441 | 0.571 | 0.546 | 0.477 | 0.624 | 0.571 | 0.233 | 0.265 | 0.25 | 0.237 | 0.263 | 0.465 | 0.673 | 0.797 | 0.576 | 0.245 | 0.302 | 0.257 | 0.231 | 0.223
NCI-H460 | 1.16 | 1.08 | 1.22 | 1.14 | 0.825 | 0.076 | 0.183 | 0.343 | 0.154 | 0.224 | 0.387 | 0.454 | 0.537 | 0.529 | 0.0682 | 0.063 | 0.0594 | 0.0603 | 0.0691
NCI-H520 | 1.03 | 1.01 | 1.05 | 1.14 | 1.14 | 0.218 | 0.231 | 0.263 | 0.254 | 0.225 | 0.17 | 0.163 | 0.187 | 0.206 | 0.624 | 0.668 | 0.69 | 0.802 | 0.652
NCI-H647 | 0.978 | 1.19 | 0.942 | – | 0.762 | 0.472 | 0.496 | 0.417 | 0.308 | 0.333 | 0.176 | 0.169 | 0.187 | 0.161 | 0.199 | 0.2 | 0.24 | 0.166 | 0.145
NCI-H838 | 1.08 | 1.1 | 0.84 | 0.714 | 0.524 | 0.183 | 0.221 | 0.229 | 0.192 | 0.183 | 0.308 | 0.295 | 0.277 | 0.3 | 0.259 | 0.244 | 0.24 | 0.205 | 0.181
NCI-H1355 | 1.01 | 0.986 | 1.04 | – | 0.748 | 0.441 | 0.422 | 0.403 | 0.427 | 0.393 | 0.651 | 0.718 | 0.798 | 0.695 | 1.1 | 1.06 | 1.01 | 1.06 | 1.05
NCI-H1395 | 1.04 | 1.32 | 1.11 | – | 0.876 | 0.583 | 0.639 | 0.597 | – | 0.577 | 0.399 | 0.345 | 0.381 | 0.471 | 0.888 | 0.95 | 0.927 | – | 0.741
NCI-H1437 | 1.11 | 1.06 | 1.15 | 1.1 | 0.993 | 0.335 | 0.315 | 0.386 | 0.369 | 0.482 | 0.464 | 0.381 | 0.406 | 0.45 | 0.3 | 0.307 | 0.351 | 0.329 | 0.34
NCI-H1650 | 1.35 | 1.3 | 1.4 | 1.45 | 0.863 | 0.384 | 0.369 | 0.319 | 0.294 | 0.344 | 0.262 | 0.257 | 0.356 | 0.35 | 0.443 | 0.394 | 0.399 | 0.349 | 0.355
NCI-H1651 | 1.07 | 1 | 1.11 | 1.26 | 1.11 | 0.509 | 0.567 | 0.554 | 0.601 | 0.567 | 0.381 | 0.404 | 0.348 | 0.486 | 0.628 | 0.584 | 0.663 | 0.611 | 0.706
